Here are results for 21 compounds from patent publication US7981903B2, “2-[2-{phenylamino}-1H-pyrrolo[2,3-D]pyrimidin-4-yl)amino] benzamide derivatives as IGF-1R inhibitors for the treatment of cancer” (GlaxoSmithKline LLC, priority 2007, dated 2011).

Molecules are shown by their SMILES. Bounds are passed on as bounds.

One assay relates to Colo205. The assay can be described thus: Inhibition of cell proliferation (CellTiter-Glo or InCell analyzer), Colo205. It counts as cell-based. Conditions: Homo sapiens, COLO 205, 72 h / 3 days, values given as IC50 category. An outline of the steps:
In one
(Cellular ATP, detected with luciferase, serves as a proxy for viable cell number.)

Assay [1] addresses T1, NIH-3T3 cells overexpressing human IR (Homo sapiens, UniProt P06213).
T1 construct: expressed in transfected cells; host or cells: NIH-3T3 (mouse fibroblasts)
The experiment in a line: IR cellular autophosphorylation (DELFIA). It counts as cell-based. Conditions: 2 h compound, insulin 3 ug/ml for 15 minutes, IC50 category. The gist of the method:
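Receptor autophosphorylation measured by DELFIA, capturing IGF-1R or IRβ and detecting with europium anti-pTyr, reported as percent of IGF-1- or insulin-stimulated signal. Compounds (30 uM to 1.5 nM) added 2 h before ligand, then 15 min stimulation (IGF-1 30 ng/ml or insulin 3 ug/ml).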

A further assay deals with ALK (Homo sapiens, UniProt Q9UM73). The assay can be described thus: ALK enzyme assay (HTRF). It counts as biochemical. Conditions: 0.25 nM ALK, 15.0 μM ATP, values given as pIC50 category. The gist of the method: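 Final compound range 0.00017 to 10 μM (twelve 1:3 dilutions). Kinase reaction with ATP and biotinylated synthetic peptide runs 120 min at 20° C, stopped with EDTA; phosphotyrosine detected by HTRF after 60 min. Inhibition referenced to DMSO (1%) and EDTA (0.1 M) controls, curve-fitted.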
Sequence of ALK (Q9UM73 19-1620): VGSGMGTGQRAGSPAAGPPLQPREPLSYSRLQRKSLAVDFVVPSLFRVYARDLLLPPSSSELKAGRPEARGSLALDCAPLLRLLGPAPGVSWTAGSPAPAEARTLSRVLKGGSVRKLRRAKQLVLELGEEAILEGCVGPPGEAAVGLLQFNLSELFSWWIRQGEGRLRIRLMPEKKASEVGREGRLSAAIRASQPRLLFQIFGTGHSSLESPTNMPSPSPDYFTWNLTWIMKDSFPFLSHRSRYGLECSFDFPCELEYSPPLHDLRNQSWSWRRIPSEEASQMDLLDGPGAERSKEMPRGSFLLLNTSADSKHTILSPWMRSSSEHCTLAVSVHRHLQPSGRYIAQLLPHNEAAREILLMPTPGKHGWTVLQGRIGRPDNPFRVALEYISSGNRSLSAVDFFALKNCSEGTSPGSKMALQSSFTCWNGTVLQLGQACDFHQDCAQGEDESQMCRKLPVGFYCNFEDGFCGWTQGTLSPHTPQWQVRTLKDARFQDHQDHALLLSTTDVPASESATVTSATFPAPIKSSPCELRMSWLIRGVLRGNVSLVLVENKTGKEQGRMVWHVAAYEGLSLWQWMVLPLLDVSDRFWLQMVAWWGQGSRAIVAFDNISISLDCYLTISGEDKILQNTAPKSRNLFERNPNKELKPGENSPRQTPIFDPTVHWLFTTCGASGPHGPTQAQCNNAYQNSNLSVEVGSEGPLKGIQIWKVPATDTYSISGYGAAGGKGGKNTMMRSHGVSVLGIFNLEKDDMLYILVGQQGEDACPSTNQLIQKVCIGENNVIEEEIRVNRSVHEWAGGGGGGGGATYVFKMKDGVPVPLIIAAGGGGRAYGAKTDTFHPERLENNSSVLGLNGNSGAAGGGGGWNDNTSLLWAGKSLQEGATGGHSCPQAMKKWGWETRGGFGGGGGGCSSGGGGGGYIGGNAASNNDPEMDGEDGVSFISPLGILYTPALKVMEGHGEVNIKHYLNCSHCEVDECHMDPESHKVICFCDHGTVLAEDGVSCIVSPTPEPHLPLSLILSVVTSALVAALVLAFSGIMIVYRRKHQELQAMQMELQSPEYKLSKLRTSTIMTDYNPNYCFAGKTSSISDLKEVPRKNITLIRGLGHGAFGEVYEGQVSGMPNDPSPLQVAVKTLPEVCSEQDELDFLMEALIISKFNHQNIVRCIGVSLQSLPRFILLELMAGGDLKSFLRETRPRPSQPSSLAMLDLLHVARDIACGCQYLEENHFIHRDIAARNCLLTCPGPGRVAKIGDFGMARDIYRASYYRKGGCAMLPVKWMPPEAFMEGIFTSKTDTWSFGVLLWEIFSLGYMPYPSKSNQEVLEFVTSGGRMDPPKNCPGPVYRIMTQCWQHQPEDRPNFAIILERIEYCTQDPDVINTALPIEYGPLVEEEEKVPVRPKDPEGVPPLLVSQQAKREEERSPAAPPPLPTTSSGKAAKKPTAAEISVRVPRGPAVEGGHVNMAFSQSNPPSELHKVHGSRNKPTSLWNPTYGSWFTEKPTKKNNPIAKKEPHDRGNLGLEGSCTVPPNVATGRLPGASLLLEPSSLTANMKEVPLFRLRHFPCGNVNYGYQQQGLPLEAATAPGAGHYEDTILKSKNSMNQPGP
A general note: TR-FRET usually uses a lanthanide donor and a delayed reading to cut background.

T1 sequence (P06213 28-1382): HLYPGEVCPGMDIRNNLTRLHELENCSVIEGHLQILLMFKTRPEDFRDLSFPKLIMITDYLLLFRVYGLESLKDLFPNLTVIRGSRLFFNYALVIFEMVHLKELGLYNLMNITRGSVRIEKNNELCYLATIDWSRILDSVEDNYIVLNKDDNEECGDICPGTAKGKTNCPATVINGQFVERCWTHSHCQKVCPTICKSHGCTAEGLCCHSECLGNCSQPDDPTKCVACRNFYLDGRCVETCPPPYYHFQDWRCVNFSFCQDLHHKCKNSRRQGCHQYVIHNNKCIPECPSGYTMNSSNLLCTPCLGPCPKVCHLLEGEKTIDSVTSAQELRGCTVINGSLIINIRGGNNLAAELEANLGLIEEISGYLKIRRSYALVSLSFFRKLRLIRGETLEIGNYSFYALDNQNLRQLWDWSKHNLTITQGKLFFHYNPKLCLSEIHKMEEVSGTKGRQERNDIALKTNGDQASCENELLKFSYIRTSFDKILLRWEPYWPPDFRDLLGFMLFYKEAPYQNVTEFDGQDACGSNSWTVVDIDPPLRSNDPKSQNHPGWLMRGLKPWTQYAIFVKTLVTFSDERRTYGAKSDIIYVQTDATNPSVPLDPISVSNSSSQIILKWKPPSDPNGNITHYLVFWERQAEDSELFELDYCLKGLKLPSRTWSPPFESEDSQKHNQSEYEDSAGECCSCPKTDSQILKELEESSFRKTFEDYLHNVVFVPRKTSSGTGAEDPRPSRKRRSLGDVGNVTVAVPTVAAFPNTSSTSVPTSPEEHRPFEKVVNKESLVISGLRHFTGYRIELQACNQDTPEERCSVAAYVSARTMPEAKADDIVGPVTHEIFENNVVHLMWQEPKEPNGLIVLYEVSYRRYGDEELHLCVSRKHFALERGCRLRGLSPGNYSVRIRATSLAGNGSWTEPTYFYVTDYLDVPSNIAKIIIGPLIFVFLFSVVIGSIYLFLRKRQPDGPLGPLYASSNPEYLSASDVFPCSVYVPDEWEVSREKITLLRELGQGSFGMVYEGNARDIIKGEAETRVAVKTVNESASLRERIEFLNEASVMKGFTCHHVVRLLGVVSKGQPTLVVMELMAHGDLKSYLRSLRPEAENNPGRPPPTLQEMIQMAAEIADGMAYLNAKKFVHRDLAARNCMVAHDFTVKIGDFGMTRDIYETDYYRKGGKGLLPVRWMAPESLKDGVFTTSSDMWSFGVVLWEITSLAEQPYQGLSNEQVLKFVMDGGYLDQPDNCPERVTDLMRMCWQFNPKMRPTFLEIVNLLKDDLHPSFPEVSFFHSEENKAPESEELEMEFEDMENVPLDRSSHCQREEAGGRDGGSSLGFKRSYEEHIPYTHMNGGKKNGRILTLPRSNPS

With `COc1cc2c(cc1Nc1nc(Nc3cccc(F)c3C(N)=O)c3cc[nH]c3n1)N(C(=O)N(C)C)CC2` [Example 146, 6-[(4-{[2-(aminocarbonyl)-3-fluorophenyl]amino}-1H-pyrrolo[2,3-d]pyrimidin-2-yl)amino]-N,N-dimethyl-5-(methyloxy)-2,3-dihydro-1H-indole-1-carboxamide], the results for the IC50 (with Colo205; in assay [1]; against ALK) were above 1000 nM, above 500 nM and 5.01 to 200 nM, respectively.

Take `COc1cc2c(cc1Nc1nc(Nc3cccc(F)c3C(N)=O)c3cc[nH]c3n1)N(C(=O)CN(C)C)CCC2` [Example 210, 2-[(2-{[1-(N,N-dimethylglycyl)-6-(methyloxy)-1,2,3,4-tetrahydro-7-quinolinyl]amino}-1H-pyrrolo[2,3-d]pyrimidin-4-yl)amino]-6-fluorobenzamide]: the IC50 (in general, the midpoint of a concentration-inhibition curve) was below 250 nM with Colo205, below 100 nM in assay [1] and 0.251 to 1 nM against ALK.

Turning to `CNC(=O)c1c(F)cccc1Nc1nc(Nc2cc3c(cc2OC)CCN3C(C)=O)nc2[nH]ccc12` [Example 135, 2-[(2-{[1-acetyl-5-(methyloxy)-2,3-dihydro-1H-indol-6-yl]amino}-1H-pyrrolo[2,3-d]pyrimidin-4-yl)amino]-6-fluoro-N-methylbenzamide], the figures for the IC50 (in the assay with Colo205; in assay [1]; against ALK) were above 1000 nM, above 500 nM and 1.26 to 3.98 nM, respectively.

For `COc1cc2c(cc1Nc1nc(Nc3cc(F)cc(F)c3C(N)=O)c3cc[nH]c3n1)N(C(=O)CN1CCCC1)CCC2` [Example 219, 2,4-difluoro-6-[(2-{[6-(methyloxy)-1-(1-pyrrolidinylacetyl)-1,2,3,4-tetrahydro-7-quinolinyl]amino}-1H-pyrrolo[2,3-d]pyrimidin-4-yl)amino]benzamide], the 50% inhibitory concentration (IC50) in the assay with Colo205 is below 250 nM; in assay [1], below 100 nM; at ALK it was 0.251 to 1 nM.

With `CCNC(=O)c1c(F)cc(F)cc1Nc1nc(Nc2cc3c(cc2OC)CCN3C(=O)CN(C)C)nc2[nH]ccc12` [Example 151, 2-[(2-{[1-(N,N-dimethylglycyl)-5-(methyloxy)-2,3-dihydro-1H-indol-6-yl]amino}-1H-pyrrolo[2,3-d]pyrimidin-4-yl)amino]-N-ethyl-4,6-difluorobenzamide], the values for the IC50 (with Colo205; in assay [1]; against ALK) were 250 to 1000 nM, 100 to 500 nM and 0.251 to 1 nM, respectively.

With `COc1cc2c(cc1Nc1nc(Nc3cccc(F)c3C(N)=O)c3cc[nH]c3n1)CN(C(=O)CCN1CCOCC1)CC2` [Example 231, 2-fluoro-6-{[2-({6-(methyloxy)-2-[3-(4-morpholinyl)propanoyl]-1,2,3,4-tetrahydro-7-isoquinolinyl}amino)-1H-pyrrolo[2,3-d]pyrimidin-4-yl]amino}benzamide], the IC50 was above 1000 nM in the assay with Colo205, above 500 nM in assay [1] and 5.01 to 200 nM at ALK.

As to `COc1cc2c(cc1Nc1nc(Nc3cccc(F)c3C(N)=O)c3cc[nH]c3n1)N(C(=O)CCN1CCN(C(C)C)CC1)CC2` [Example 188, 2-fluoro-6-[(2-{[1-{3-[4-(1-methylethyl)-1-piperazinyl]propanoyl}-5-(methyloxy)-2,3-dihydro-1H-indol-6-yl]amino}-1H-pyrrolo[2,3-d]pyrimidin-4-yl)amino]benzamide], the IC50 was 250 to 1000 nM with Colo205, above 500 nM in assay [1] and 5.01 to 200 nM at ALK.

For `COc1cc(OCCCN2CCN(C)CC2)ccc1Nc1nc(Nc2cccc(F)c2C(N)=O)c2cc[nH]c2n1` [Example 205, 2-fluoro-6-({2-[(2-(methyloxy)-4-{[3-(4-methyl-1-piperazinyl)propyl]oxy}phenyl)amino]-1H-pyrrolo[2,3-d]pyrimidin-4-yl}amino)benzamide], the IC50 was below 250 nM in the assay with Colo205, 100 to 500 nM in assay [1] and 1.26 to 3.98 nM at ALK.

Regarding `CN(C)CC(=O)Nc1ccc(OC(F)(F)F)c(Nc2nc(Nc3ccccc3C(N)=O)c3cc[nH]c3n2)c1` [Example 16, 2-{[2-({5-[(N,N-dimethylglycyl)amino]-2-[(trifluoromethyl)oxy]phenyl}amino)-1H-pyrrolo[2,3-d]pyrimidin-4-yl]amino}benzamide], the IC50 in the assay on Colo205 was 250 to 1000 nM; in assay [1], 100 to 500 nM; on ALK, 0.251 to 1 nM.

With `COc1cc(N2CCN(C(C)C)CC2)ccc1Nc1nc(Nc2cc(F)cc(F)c2C(N)=O)c2cc[nH]c2n1` [Example 89, 2,4-difluoro-6-[(2-{[4-[4-(1-methylethyl)-1-piperazinyl]-2-(methyloxy)phenyl]amino}-1H-pyrrolo[2,3-d]pyrimidin-4-yl)amino]benzamide], the IC50 is 250 to 1000 nM in the assay on Colo205, below 100 nM in assay [1] and 0.251 to 1 nM against ALK.

As for `CCN(CC)CC(=O)N1CCc2cc(OC)c(Nc3nc(Nc4cccc(F)c4C(=O)NC)c4cc[nH]c4n3)cc21` [Example 137, 2-[(2-{[1-(N,N-diethylglycyl)-5-(methyloxy)-2,3-dihydro-1H-indol-6-yl]amino}-1H-pyrrolo[2,3-d]pyrimidin-4-yl)amino]-6-fluoro-N-methylbenzamide], the IC50 in the assay on Colo205 was 250 to 1000 nM; in assay [1] it was 100 to 500 nM; on ALK, 5.01 to 200 nM.

As for `CCCN1CCCC(c2ccc(Nc3nc(Nc4ccccc4C(N)=O)c4cc[nH]c4n3)c(OC)c2)C1` (stereo not drawn) [Example 3, 2-[(2-{[2-(methyloxy)-4-(1-propyl-3-piperidinyl)phenyl]amino}-1H-pyrrolo[2,3-d]pyrimidin-4-yl)amino]benzamide], the IC50 in the assay with Colo205 was below 250 nM; in assay [1] it was below 100 nM; against ALK it was 0.251 to 1 nM.

As for `CCCN1CCC(N2CCc3cc(OC)c(Nc4nc(Nc5cccc(F)c5C(N)=O)c5cc[nH]c5n4)cc3C2)CC1` [Example 122, 2-fluoro-6-[(2-{[6-(methyloxy)-2-(1-propyl-4-piperidinyl)-1,2,3,4-tetrahydro-7-isoquinolinyl]amino}-1H-pyrrolo[2,3-d]pyrimidin-4-yl)amino]benzamide], the IC50 was above 1000 nM with Colo205, below 100 nM in assay [1] and 5.01 to 200 nM on ALK.

For the compound `COc1cc(N2CCN(C(C)C)CC2)c(C)cc1Nc1nc(Nc2cc(F)cc(F)c2C(N)=O)c2cc[nH]c2n1` [Example 91, 2,4-difluoro-6-[(2-{[5-methyl-4-[4-(1-methylethyl)-1-piperazinyl]-2-(methyloxy)phenyl]amino}-1H-pyrrolo[2,3-d]pyrimidin-4-yl)amino]benzamide], the IC50 with Colo205 is below 250 nM; in assay [1] it was below 100 nM; against ALK, 0.251 to 1 nM.

On to `COc1cc2c(cc1Nc1nc(Nc3cccc(F)c3C(N)=O)c3cc[nH]c3n1)N(C(=O)CN(C)C)CC2` [Example 53, 2-[(2-{[1-(N,N-dimethylglycyl)-5-(methyloxy)-2,3-dihydro-1H-indol-6-yl]amino}-1H-pyrrolo[2,3-d]pyrimidin-4-yl)amino]-6-fluorobenzamide], for which the IC50 is below 250 nM with Colo205, below 100 nM in assay [1] and 0.251 to 1 nM on ALK.

Take `COc1cc2c(cc1Nc1nc(Nc3cc(F)cc(F)c3C(N)=O)c3cc[nH]c3n1)N(C(=O)CN(C)C)CCC2` [Example 178, 2-[(2-{[1-(N,N-dimethylglycyl)-6-(methyloxy)-1,2,3,4-tetrahydro-7-quinolinyl]amino}-1H-pyrrolo[2,3-d]pyrimidin-4-yl)amino]-4,6-difluorobenzamide]: the IC50 with Colo205 was below 250 nM; in assay [1], below 100 nM; against ALK it was 0.251 to 1 nM.

For `CNC(=O)c1c(F)cccc1Nc1nc(Nc2cc3c(cc2OC)CCN3C(=O)C(C)(C)O)nc2[nH]ccc12` [Example 193, 2-fluoro-6-[(2-{[1-(2-hydroxy-2-methylpropanoyl)-5-(methyloxy)-2,3-dihydro-1H-indol-6-yl]amino}-1H-pyrrolo[2,3-d]pyrimidin-4-yl)amino]-N-methylbenzamide], the IC50 in the assay on Colo205 was above 1000 nM; in assay [1], above 500 nM; on ALK, 5.01 to 200 nM.

On to `COc1cc2c(cc1Nc1nc(Nc3cccc(F)c3C(N)=O)c3cc[nH]c3n1)CN(C(=O)CCN1CCN(C(C)C)CC1)CC2` [Example 229, 2-fluoro-6-[(2-{[2-{3-[4-(1-methylethyl)-1-piperazinyl]propanoyl}-6-(methyloxy)-1,2,3,4-tetrahydro-7-isoquinolinyl]amino}-1H-pyrrolo[2,3-d]pyrimidin-4-yl)amino]benzamide], for which the results for the IC50 (in the assay with Colo205; in assay [1]; at ALK) were above 1000 nM, above 500 nM and 5.01 to 200 nM, respectively.

In the case of `COc1cc2c(cc1Nc1nc(Nc3cccc(F)c3C(N)=O)c3cc[nH]c3n1)N(C(=O)CN1CCCCC1)CCC2` [Example 218, 2-fluoro-6-[(2-{[6-(methyloxy)-1-(1-piperidinylacetyl)-1,2,3,4-tetrahydro-7-quinolinyl]amino}-1H-pyrrolo[2,3-d]pyrimidin-4-yl)amino]benzamide], the IC50 with Colo205 was below 250 nM; in assay [1] it was below 100 nM; at ALK, 0.251 to 1 nM.

For the compound `COc1cc(C2CCN(C(C)C)CC2)ccc1Nc1nc(Nc2ccc(F)cc2C(N)=O)c2cc[nH]c2n1` [Example 58, 5-fluoro-2-[(2-{[4-[1-(1-methylethyl)-4-piperidinyl]-2-(methyloxy)phenyl]amino}-1H-pyrrolo[2,3-d]pyrimidin-4-yl)amino]benzamide], the figures for the IC50 (with Colo205; in assay [1]; on ALK) were below 250 nM, below 100 nM and 0.251 to 1 nM, respectively.

Take `CCCN1CCC(c2ccc(Nc3nc(Nc4cc(F)cc(F)c4C(N)=O)c4cc[nH]c4n3)c(OC)c2)CC1` [Example 92, 2,4-difluoro-6-[(2-{[2-(methyloxy)-4-(1-propyl-4-piperidinyl)phenyl]amino}-1H-pyrrolo[2,3-d]pyrimidin-4-yl)amino]benzamide]: the IC50 in the assay on Colo205 was below 250 nM; in assay [1], below 100 nM; against ALK, 0.251 to 1 nM.
